In US9221765B2, “Inhibition and dispersion of bacterial biofilms with benzimidazole derivatives” (North Carolina State University, priority 2009, dated 2015):
Where a name gives a salt, the structure may show the parent alone.

Tests used:
[1] = test system: E. faecium, MRSA and S. epidermidis; assay: Mitigating effects of zinc on biofilm formation inhibition; assay type: cell-based; details: for effect of Zn(II) on ability to inhibit biofilm development: 50.0 μM compound, 25.0-200.0 μM ZnCl2, dose-dependent, hydrochloride
Text: Next, Zn(II) homeostasis was examined. Zn(II) has been implicated in the pathogenesis of Gram-positive bacterial infections and may be an important regulator of biofilm formation (Conrady, D. G.; Brescia, C. C.; Horii, K.; Weiss, A. A.; Hassett, D. J.; Herr, A. B. Proceedings of the National Academy of Sciences of the United States of America 2008, 105, 19456-19461).
Procedure to Determine the Mitigating Effects of Zinc on E. faecium, MRSA and S. epidermidis Biofilm Formation Inhibition Induced by 2-(2-Amino-1H-Benzo[d]Imidazol-6-Ylcarbamoyl)-3,4,5,6-Tetrachlorobenzoic Acid Hydrochloride:
Inhibition assays were performed by taking an overnight culture of bacterial strain and subculturing it at an OD600 of 0.01 into the necessary media (brain heart infusion for E. faecium, tryptic soy broth with a 0.5% glucose supplement (TSBG) for MRSA, Luria-Bertani (LB) media for MDRAB, Luria-Bertani media without NaCl (LBNS) for PAO1 and tryptic soy broth with a 0.5% glucose supplement and a 3.0% NaCl supplement (TGN) for S. epidermidis. Stock solutions of 50.0 μM 2-(2-amino-1H-benzo[d]imidazol-6-ylcarbamoyl)-3,4,5,6-tetrachlorobenzoic acid hydrochloride were then made in the necessary media. Samples were then doped with 25.0, 50.0, 75.0, 100.0, 150.0 and 200.0 μM ZnCl2 with controls in which no test compound was added to examine effects of 200.0 μM ZnCl2 on biofilm formation. These stock solutions were aliquoted (100 μL) into the wells of the 96-well PVC microtiter plate. Sample plates were then wrapped in GLAD Press n′ Seal® followed by an incubation under stationary conditions for 24 h at 37° C. After incubation, the media was discarded from the wells and the plates were washed thoroughly with water. Plates were then stained with 100 μL of 0.1% solution of crystal violet (CV) and then incubated at ambient temperature for 30 min. Plates were washed with water again and the remaining stain was solubilized with 200 μL of 95% ethanol. A sample of 125 μL of solubilized CV stain from each well was transferred to the corresponding wells of a polystyrene microtiter dish. Biofilm inhibition was quantitated by measuring the OD540 of each well in which a negative control lane wherein no biofilm was formed served as a background and was subtracted out.

S. epidermidis = assay: Dispersion of preformed S. epidermidis biofilm; assay type: cell-based, Staphylococcus epidermidis; details: concentration that disperses 50% of a pre-formed biofilm
Protocol: (§1) A dose-response study was then initiated in which both the IC50 and EC50 value of each compound towards the bacterial strains were determined (Table 1). Here, IC50 is defined as the concentration of compound that inhibits 50% biofilm development while EC50 is defined as the concentration of compound that disperses 50% of a pre-formed biofilm.
(§2) Procedure to Determine the Dispersal Effect of Test Compounds on E. faecium, MRSA and S. epidermidis Preformed Biofilms:
(§3) Dispersion assays were performed by taking an overnight culture of bacterial strain and subculturing it at an OD600 of 0.01 into the necessary media (brain heart infusion for E. faecium, tryptic soy broth with a 0.5% glucose supplement (TSBG) for MRSA and tryptic soy broth with a 0.5% glucose supplement and a 3.0% NaCl supplement (TGN) for S. epidermidis. The resulting bacterial suspension was aliquoted (100 μL) into the wells of a 96-well PVC microtiter plate. Plates were then wrapped in GLAD Press n′ Seal® followed by an incubation under stationary conditions at ambient temperature to establish the biofilms. After 24 h, the media was discarded from the wells and the plates were washed thoroughly with water. Stock solutions of predetermined concentrations of the test compound were then made in the necessary media. These stock solutions were aliquoted (100 μL) into the wells of the 96-well PVC microtiter plate with the established biofilms. Media alone was added to a subset of the wells to serve as a control. Sample Plates were then incubated for 24 h at 37° C. After incubation, the media was discarded from the wells and the plates were washed thoroughly with water. Plates were then stained with 100 μL of 0.1% solution of crystal violet (CV) and then incubated at ambient temperature for 30 min. Plates were washed with water again and the remaining stain was solubilized with 200 μL of 95% ethanol. A sample of 125 μL of solubilized CV stain from each well was transferred to the corresponding wells of a polystyrene microtiter dish. Biofilm dispersion was quantitated by measuring the OD540 of each well in which a negative control lane wherein no biofilm was formed served as a background and was subtracted out.

[2] = test system: vancomycin-resistant Enterococcus faecium (VRE); assay: Dispersion of preformed VRE (E. faecium) biofilm; assay type: cell-based; details: concentration that disperses 50% of a pre-formed biofilm
Protocol: as §1, §2, §3

[3] = test system: E. faecium, MRSA and S. epidermidis; assay: Mitigating effects of iron on biofilm formation inhibition; assay type: cell-based; details: increasing Fe(II) concentration, 10.0 μM FeSO4, hydrochloride
Protocol: Next the mechanistic basis of how compound 3 was able to inhibit and disperse bacterial biofilms was investigated. Iron levels are known to effect Gram-positive biofilm development (Deighton, M.; Borland, R. Infection and Immunity 1993, 61, 4473-4479) and were deemed a plausible driver of the observed anti-biofilm activity. To examine Fe(II) related antibiofilm behavior, a dose-dependent study was performed in which the ability of 3 to inhibit biofilm development was measured under increasing Fe(II) concentration. […]
Inhibition assays were performed by taking an overnight culture of bacterial strain and subculturing it at an OD600 of 0.01 into the necessary media (brain heart infusion for E. faecium, tryptic soy broth with a 0.5% glucose supplement (TSBG) for MRSA, Luria-Bertani (LB) media for MDRAB, Luria-Bertani media without NaCl (LBNS) for PAO1 and tryptic soy broth with a 0.5% glucose supplement and a 3.0% NaCl supplement (TGN) for S. epidermidis. Stock solutions of predetermined concentrations of the 2-(2-amino-1H-benzo[d]imidazol-6-ylcarbamoyl)-3,4,5,6-tetrachlorobenzoic acid hydrochloride were then made in the necessary media. […] Biofilm inhibition was quantitated by measuring the OD540 of each well in which a negative control lane wherein no biofilm was formed served as a background and was subtracted out.

[4] = listed as 2-(2-amino-1H-benzo[d]imidazol-6-ylcarbamoyl)-3,4,5,6-tetrachlorobenzoic acid hy

Nc1nc2ccc(NC(=O)c3c(Cl)c(Cl)c(Cl)c(Cl)c3C(=O)O)cc2[nH]1 [Compound 3, 2-(2-amino-1H-benzo[d]imidazol-6-ylcarbamoyl)-3,4,5,6-tetrachlorobenzoic acid hydrochloride]
effect of Zn(II) on ability to inhibit biofilm development [1]: suppressed the ability of 3 to inhibit biofilm development | effect of Zn(II) on ability to inhibit biofilm development [1, 4]: mitigate the biofilm inhibition response | biofilm formation inhibition when supplemented with ZnCl2 ([1]; 200 μM ZnCl2): unable to inhibit biofilm formation | EC50 (S. epidermidis; Staphylococcus epidermidis): 7.25 µM | EC50 (S. epidermidis; hydrochloride): 7.3 µM | EC50 [2]: 74.8 µM | EC50 ([2]; hydrochloride): 75 µM | effect of Fe(II) on biofilm inhibitory activity [3]: not affected by increasing Fe(II) concentrations | effect of Fe(II) on biofilm inhibitory activity [3, 4]: no effect on biofilm inhibitory activity
